Tested on: Tet/GSK-3β mice
Experiment: Genotype frequency of double transgenic mice after prenatal doxycycline treatment (perinatal lethality)
Assay type: in vivo, mouse
Conditions: 14% without treatment, 25% expected
Excerpt: Tet/GSK-3B mice were viable and fertile and appeared normal without pharmacological intervention to suppress transgene expression. This seemed to contradict the previously postulated toxicity of increased GSK-3β expression in brain (Brownlees et al., 1997). […] The Tet/GSK-3β mice were underrepresented (14%, n=401). This might be indicative of lethality due to embryonic overexpression of GSK-3β in Tet/GSK-3β mice.
We had previously observed perinatal transgene expression and lethality in our CamKIIα-tTA driven animal model of Huntington's disease (HD94) (Yamamoto et al., 2000). In the case of HD94 mice, if pregnant mice are given the tetracycline analog doxycycline (2 mg/ml) in the drinking water ad libitum from E15 to birth, only postnatal transgenic expression takes place and the frequency of the four expected genotypes is restored to 25%. We thus decided to apply the same program of perinatal doxycycline treatment to the Tet/GSK-3B mice. […] As expected, prenatal doxycycline treatment normalized to 25% the frequency of Tet/GSK-3β mice and thus, to maximize yield of double transgenic mice in litters, the perinatal doxycycline treatment was routinely employed.

`C[C@H]1c2cccc(O)c2C(=O)C2=C(O)[C@]3(O)C(=O)C(C(N)=O)=C(O)[C@@H](N(C)C)[C@@H]3[C@@H](O)[C@@H]21` [doxycycline] was tested, and the “frequency of Tet/GSK-3β mice” value was 25%.
